Measured values: patent US12134663B2, “Cationic peptides for activating Lck” (Interk Peptide Therapeutics Limited, priority 2018, dated 2024)
Where no end group is shown, it is not given here. [ ]: non-standard residue; d: D form.

B1: CD40L: CD40L (5 ug/mL) added to immature monocyte derived DC cultures (protein, UniProt P29965 113-261, looked up)
CD40 ligand, soluble form: MQKGDQNPQIAAHVISEASSKTTSVLQWAEKGYYTMSNNLVTLENGKQLTVKRQGLYYIYAQVTFCSNREASSQAPFIASLCLKSPGRFERILLRAANTHSSAKPCGQQSIHLGGVFELQPGASVFVNVTDPSQVSHGTGFTSFGLLKL

Legend:
[1] = tested on: anti-CD3 stimulated PBMCs; assay: IL-12p70 secretion in anti-CD3 stimulated PBMCs; assay type: cell-based, human; details: 24 hours
Experimental: The ability of Lck activating polypeptides to alter IL-12 (IL-12p70) secretion was examined further. In brief, anti-CD3 stimulated PBMCs were cultured together with the Lck activating polypeptides RVKVKVVVV-RRRRRRRRR (SEQ ID NO: 58, “IK15800”), RSKAKNPLY-RRRRRRRRR (SEQ ID NO: 24, “IK14800”), and RVKVKVVVV-RRRRRRRRR (SEQ ID NO: 58) and RSKAKNPLY-RRRRRRRRR (SEQ ID NO: 24) comprising only D amino acids (SEQ ID NO: 111, “IKD15800”, and SEQ ID NO: 129, “IKD14800”, respectively), in the presence and absence of anti-CD40L blocking antibody for 24 hours. Supernatants were assessed for IL-12p70 levels by ELISA.
The ability of Lck activating polypeptides to alter IL-12 (IL-12p70) secretion was examined relative to no peptide. In brief, PBMCs were cultured together with anti-CD3 (1 ug/ml) and the Lck activating polypeptide RSKAKNPLY-RRRRRRRRR (SEQ ID NO: 24) or RVKVKVVVV-RRRRRRRRR (SEQ ID NO: 58) for 24 or 72 hours. Supernatants were assessed for IL-12p70 levels by ELISA.

exhausted CD4+ T cells = assay: CD4+ T cell exhaustion assay, CD25 on restimulation; assay type: cell-based, murine; details: 72 hours; relative to IK14000 control peptide
Description: A CD4+ T cell exhaustion assay using a murine model (Tg4 Ly5.1 (MBP-Tracker Mouse), B10PIxC57BL/6) was used whereby CD4+ T cell receptor transgenic T cells are stimulated with wild-type myelin basic protein peptide (WT-MBP) to produce fully responsive effector T cells or altered peptide ligand peptide MBP (APL-MBP) to produce exhausted T cells. These are rested in IL-2 and then a secondary stimulation with APC, a dose of APL-MBP peptide along with any treatments under investigation.
Spleens from the aforementioned mice were removed and processed to generate a single cell suspension of splenocytes. MBP-Tracker splenocytes were resuspended at 3×10^6/mL and stimulated with WT-MBP (control, non-exhausted cells) or APL-MBP (to generate exhausted cells). Cells were stimulated for 72 hr. Following stimulation, T cells were purified by Ficoll density gradient, and subsequently re-plated at 2×10^6/mL in 20 U/mL IL-2 for four days. […] Following 48-72b hours of culture the cells were assessed by flow cytometry for markers of IL-2Ra and proliferation (CD25 and Ki-67, respectively) and supernatant was collected for assessment of cytokine production (IFN-γ and TNF-α) by ELISA or multiplexed immunoassays. […]

isolated CD4+ T cells = assay: IL-18Ra expression on stimulated CD4+ T cells; assay type: cell-based, human; details: 24 hours; data not shown
Experimental: (§1) Isolated CD4+ T cells were stimulated with anti-CD3 anti-CD28 Dynabeads™ and cultured together with the Lck activating polypeptides RSKAKNPLY-RRRRRRRRR (SEQ ID NO: 24), and RSKAKNPLY-RRRRRRRRR (SEQ ID NO: 24) comprising only D amino acids (SEQ ID NO: 129), for 24 hours after which cells were assessed for IL-18Ra expression by flow cytometry.

Lck = target: T1, Lck (Homo sapiens, UniProt P06239); assay: In vitro Lck activation kinase study (Eurofins); assay type: biochemical; details: peptide 1 μM; relative to control
T1 construct: purchased Eurofins Pharma Discovery Services UK Limited
T1 sequence (P06239 whole entry): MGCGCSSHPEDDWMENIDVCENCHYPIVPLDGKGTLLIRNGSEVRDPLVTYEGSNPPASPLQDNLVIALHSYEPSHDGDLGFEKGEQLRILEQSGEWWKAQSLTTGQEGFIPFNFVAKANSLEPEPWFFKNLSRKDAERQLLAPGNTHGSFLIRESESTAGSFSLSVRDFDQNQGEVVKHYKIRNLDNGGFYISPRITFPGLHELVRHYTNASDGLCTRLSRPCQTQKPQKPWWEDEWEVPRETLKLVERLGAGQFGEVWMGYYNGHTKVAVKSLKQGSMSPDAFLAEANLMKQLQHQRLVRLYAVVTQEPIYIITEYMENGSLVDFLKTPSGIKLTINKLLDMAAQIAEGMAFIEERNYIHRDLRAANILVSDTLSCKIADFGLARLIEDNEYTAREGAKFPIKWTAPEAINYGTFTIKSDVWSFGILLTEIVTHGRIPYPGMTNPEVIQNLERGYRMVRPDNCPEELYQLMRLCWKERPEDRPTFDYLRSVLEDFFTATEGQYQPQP
Experimental: The ability of polypeptides of the present invention to activate Lck was examined in vitro. Lck is member of the Src family of tyrosine kinases. […] All results in are percentage Lck activity relative to control (100%).
Test polypeptides were assessed at a concentration of 1.0 μM.
The ability of polypeptides of the present invention to activate Src family kinases was examined in vitro. Kinase activation studies utilising peptides were carried out as described in Example 1, and all kinase activity values are shown as percentage relative to control.
The ability of polypeptides comprising both lysine and arginine to activate Lck in vitro was examined. Lck activation studies utilising peptides were carried out as described in Example 1, and all kinase activity values are shown as percentage relative to control.

[2] = tested on: isolated human CD8+ T cells; assay: IFN-γ secretion in stimulated CD8+ T cell assay; assay type: cell-based; details: anti-CD3 anti-CD28 Dynabeads, 24 hours
Experimental: (§2) The ability of Lck activating polypeptides to alter IFN-γ secretion by isolated human CD8+ T cells in a stimulated CD8+ T cell assay was examined. In brief, Isolated CD8+ T cells were stimulated with anti-CD3 anti-CD28 Dynabeads™ and cultured together with the Lck activating polypeptides RRRRRRRRR (SEQ ID NO: 6, IK00900) and RSKAKNPLY-RRRRRRRRR (SEQ ID NO: 24, IK14800) for 24 hours after which supernatants were assessed for IFN-γ by ELISA.
In brief, Isolated CD8+ T cells were stimulated with anti-CD3 anti-CD28 Dynabeads™ and cultured together with the Lck activating polypeptide RSKAKNPLY-RRRRRRRRR (SEQ ID NO: 24), comprising only D amino acids (SEQ ID NO: 129, IKD14800), for 24 hours after which supernatants were assessed for IFN-γ by ELISA.

[3] = tested on: isolated human CD4+ T cells; assay: IFN-γ secretion in stimulated CD4+ T cell assay; assay type: cell-based; details: anti-CD3 anti-CD28 Dynabeads, 24 hours
Experimental: as §2, with “CD4+” for “CD8+”, “was also” for “was”
The ability of Lck activating polypeptides comprising D amino acids to alter IFN-γ secretion by isolated human CD4+ T cells in a stimulated CD4+ T cell assay was also examined. In brief, Isolated CD4+ T cells were stimulated with anti-CD3 anti-CD28 Dynabeads™ and cultured together with the Lck activating polypeptide RSKAKNPLY-RRRRRRRRR (SEQ ID NO: 24, IK14800), or the Lck activating polypeptide RSKAKNPLY-RRRRRRRRR (SEQ ID NO: 24) comprising only D amino acids (SEQ ID NO: 129, IKD14800), for 24 hours after which supernatants were assessed for IFN-γ by ELISA.

isolated CD8+ T cells = assay: IL-18Ra expression on stimulated CD8+ T cells; assay type: cell-based, human; details: 24 hours; data not shown
Experimental: as §1, with “The effect of Lck activating polypeptides on IL-18Ra expression on” for “Isolated”, “CD4+ and CD8+ T cells in stimulated CD4+ and CD8+ T cell assays was examined. In brief, isolated CD8+” for “CD4+”

CD4+ T cells = assay: pSTAT4 expression in stimulated T cell assay; assay type: cell-based, human; details: 0-1.25 μM, 72 hours; data not shown
Description: The effect of Lck activating polypeptides on intracellular pSTAT4 expression in CD4+ and CD8+ T cells in a stimulated T cell assay was examined. In brief, isolated T cells (CD3+) were stimulated with anti-CD3 anti-CD28 Dynabeads™ and cultured together with the Lck activating polypeptides RSKAKNPLY-RRRRRRRRR (SEQ ID NO: 24), RVKVKVVVV-RRRRRRRRR (SEQ ID NO: 58) and RVKVKVVVV-RRRRRRRRR (SEQ ID NO: 58) comprising only D amino acids (SEQ ID NO: 111), over a 5-concentration range plus vehicle control (0-1.25 μM) for 72 hours after which […] assessed for p-STAT4 expression by flow cytometry.

isolated T cells (CD3+) = assay: IL-2 secretion from isolated T cells (CD3+); assay type: cell-based, human; details: anti-CD3 anti-CD28 Dynabeads, 0-1.25 μM, 72 hours
Experimental: In brief, isolated T cells (CD3+) were stimulated with anti-CD3 anti-CD28 Dynabeads™ and cultured together the Lck activating polypeptides RSKAKNPLY-RRRRRRRRR (SEQ ID NO: 24, “IK14800”), RVKVKVVVV-RRRRRRRRR (SEQ ID NO: 58, “IK15800”), and RVKVKVVVV-RRRRRRRRR ([…]) comprising only D amino acids (i.e. rvkvkvvvv-rrrrrrrrr; […], “IKD15800”), over a 5-concentration range plus vehicle control (0-1.25 μM) for 72 hours after which supernatants were collected and assessed for IL-2 by ELISA.

CD3neg CD56+ NK cells = CD3neg CD56+ NK cells within stimulated PBMCs (Ki67, CD25, CD215, CD360); assay type: cell-based, human; details: data not shown
Experimental: The ability of Lck activating polypeptides to induce proliferation of isolated human CD3^neg CD56^+ NK cells within PBMCs was examined. In brief, anti-CD3 stimulated PBMCs were cultured together with the Lck activating polypeptide rvkvkvvvv-rrrrrrrrr (SEQ ID NO: 111, IKD15800) for 72 hours after which CD3^neg CD56^+ NK cells were assessed for Ki67 expression by flow cytometry. Ki67 is a proliferation marker used to determine the growth fraction of a given cell population, in this case CD3^neg CD56^+ NK cells.

[4] = tested on: immature monocyte derived DCs (iMoDCs); assay: Dendritic cell phenotype (CD14 expression) in immature DC cultures; assay type: cell-based; details: CD40L 5 ug/mL and anti-CD3, 72 hours; data not shown
Experimental: The effect of CD40L on dendritic cell phenotype (CD14 expression) in isolated immature DC cell cultures was examined. In brief, immature monocyte derived DCs (iMoDCs) were derived from isolated CD14+ monocytes cultured for 7 days in MoDC differentiation media. iMoDCs were cultured for 72 hours in the presence of CD40L (5 ug/mL) and anti-CD3 (1 ug/mL). After 72 hours, cells were assessed for CD14 and CD11c expression by flow cytometry to determine DC cell phenotype.
In brief, immature monocyte derived DCs (iMoDCs) were derived from isolated CD14+ monocytes cultured for 7 days in Mo-DC differentiation media. iMoDCs were cultured for 72 hrs in the presence of test peptides over a 5-point concentration curve plus vehicle (0-1.25 μM) and anti-CD3 (1 μg/mL). After 72 hrs, cells were assessed for CD14 and CD11c expression by flow cytometry to determine DC cell phenotype. Data presented indicates the mean respective CD14 positive or negative cell populations (%) within CD11c positive population in response to peptide treatment, +/− SEM, n=4. Data were analysed by RM two-way ANOVA with Dunnett's post-test comparing each peptide concentration with vehicle, *p<0.05, **p<0.01, ***p<0.001.

Molecule | IL-12 (IL-12p70) secretion relative to cultures with anti-CD40L blocking antibody [1] | expression of CD25 in exhausted CD4+ T cells upon restimulation (exhausted CD4+ T cells) | IL-18Ra expression on CD4+ T cells (isolated CD4+ T cells) | increase in Lck activity (Lck) [%] | IFN-γ secretion relative to no peptide control [2] | IFN-γ secretion relative to no peptide control [3] | IL-18Ra expression on CD8+ T cells (isolated CD8+ T cells) | p-STAT4 expression on CD4+ T cells (CD4+ T cells) | IL-2 secretion relative to control (isolated T cells (CD3+)) | proliferating population of CD3neg CD56+ NK cells (Ki67) (CD3neg CD56+ NK cells; 72 hours) | population of CD3neg CD56+ NK cells that were CD25 positive (CD3neg CD56+ NK cells) | population of CD3neg CD56+ NK cells that were CD215 positive (CD3neg CD56+ NK cells) | population of CD3neg CD56+ NK cells that were CD360 positive (CD3neg CD56+ NK cells) | proportion of CD14 negative CD11c+ dendritic cells [4]
rskaknplyrrrrrrrrr ([dR][dS][dK][dA][dK][dN][dP][dL][dY][dR][dR][dR][dR][dR][dR][dR][dR][dR]) [IKD14800] | induce IL-12 secretion | increased | increase IL-18Ra expression | 490 | induces IFN-γ secretion | induces IFN-γ secretion | increase IL-18Ra expression |  |  |  |  |  |  | 
rvkvkvvvv-rrrrrrrrr ([dR][dV][dK][dV][dK][dV][dV][dV][dV][dR][dR][dR][dR][dR][dR][dR][dR][dR]) [IKD15800] | induce IL-12 secretion |  |  |  |  |  |  | increase p-STAT4 expression | induce IL-2 secretion | increased the proliferating population | increased the population | increased the population | increased the population | 
B1 |  |  |  |  |  |  |  |  |  |  |  |  |  | increased the proportion of CD14 negative CD11c+ dendritic cells
